Experiments:
SHP-77 = SHP-77 cancer cell proliferation inhibition (Cell Titer-Glo); format: cell-based; conditions: Homo sapiens, SHP77, SHP-77 small cell lung cancer cell line, 72 hours
Description: (§1) In order to evaluate the cancer cell proliferation inhibitory activity of the compounds of the present invention, the following experiments were performed.
(§2) To evaluate the cancer cell proliferation inhibitory effect, the cell growth rate analysis was performed while culturing MDA-MB-231 cell line (Korean Cell Line Bank #30026) and MDA-MB-468 cell line as the triple-negative breast cancer cell line, and SHP-77 (ATCC #CRL-2195) as the small cell lung cancer cell line in DMEM (HyClone #SH30243) and RPMI medium (HyClone #SH3027.01), respectively. More specifically, the cell lines were each plated at 2000 cells/100 μl in each well of a 96-well flat-bottom plate (coming #3903), and then the example compounds having eleven concentrations which were diluted by ⅓ so that the final concentrations were 10.000000, 3.333333, 1.111111, 0.370370, 0.123457, 0.041152, 0.013717, 0.004572, 0.001524, 0.000508 and 0.000169 μM were treated. After 72 hours, 100 μl of Cell Titer-Glo (Promega G7573) was treated, incubated at RT for 10 minutes, and then luminescence was measured using a microplate reader. The measured luminescence degree was calculated as GI50 using Prism (version 8.2 GraphPad) software.
(§3) In the table below, the following designations were used for the evaluation of proliferation inhibitory activity.

MDA-MB-231 cell line = test: MDA-MB-231 cancer cell proliferation inhibition (Cell Titer-Glo); format: cell-based; conditions: Homo sapiens, MDA-MB-231 triple-negative breast cancer cell line, 72 hours
Description: as §1, §2, §3

LRRK2 = LRRK2 (Homo sapiens, UniProt Q5S007); test: LRRK2 enzyme inhibition, ADP-Glo kinase assay; format: biochemical; parameters: purchased Invitrogen PR8604B
LRRK2, sequence (Q5S007 970-2527 limits assumed): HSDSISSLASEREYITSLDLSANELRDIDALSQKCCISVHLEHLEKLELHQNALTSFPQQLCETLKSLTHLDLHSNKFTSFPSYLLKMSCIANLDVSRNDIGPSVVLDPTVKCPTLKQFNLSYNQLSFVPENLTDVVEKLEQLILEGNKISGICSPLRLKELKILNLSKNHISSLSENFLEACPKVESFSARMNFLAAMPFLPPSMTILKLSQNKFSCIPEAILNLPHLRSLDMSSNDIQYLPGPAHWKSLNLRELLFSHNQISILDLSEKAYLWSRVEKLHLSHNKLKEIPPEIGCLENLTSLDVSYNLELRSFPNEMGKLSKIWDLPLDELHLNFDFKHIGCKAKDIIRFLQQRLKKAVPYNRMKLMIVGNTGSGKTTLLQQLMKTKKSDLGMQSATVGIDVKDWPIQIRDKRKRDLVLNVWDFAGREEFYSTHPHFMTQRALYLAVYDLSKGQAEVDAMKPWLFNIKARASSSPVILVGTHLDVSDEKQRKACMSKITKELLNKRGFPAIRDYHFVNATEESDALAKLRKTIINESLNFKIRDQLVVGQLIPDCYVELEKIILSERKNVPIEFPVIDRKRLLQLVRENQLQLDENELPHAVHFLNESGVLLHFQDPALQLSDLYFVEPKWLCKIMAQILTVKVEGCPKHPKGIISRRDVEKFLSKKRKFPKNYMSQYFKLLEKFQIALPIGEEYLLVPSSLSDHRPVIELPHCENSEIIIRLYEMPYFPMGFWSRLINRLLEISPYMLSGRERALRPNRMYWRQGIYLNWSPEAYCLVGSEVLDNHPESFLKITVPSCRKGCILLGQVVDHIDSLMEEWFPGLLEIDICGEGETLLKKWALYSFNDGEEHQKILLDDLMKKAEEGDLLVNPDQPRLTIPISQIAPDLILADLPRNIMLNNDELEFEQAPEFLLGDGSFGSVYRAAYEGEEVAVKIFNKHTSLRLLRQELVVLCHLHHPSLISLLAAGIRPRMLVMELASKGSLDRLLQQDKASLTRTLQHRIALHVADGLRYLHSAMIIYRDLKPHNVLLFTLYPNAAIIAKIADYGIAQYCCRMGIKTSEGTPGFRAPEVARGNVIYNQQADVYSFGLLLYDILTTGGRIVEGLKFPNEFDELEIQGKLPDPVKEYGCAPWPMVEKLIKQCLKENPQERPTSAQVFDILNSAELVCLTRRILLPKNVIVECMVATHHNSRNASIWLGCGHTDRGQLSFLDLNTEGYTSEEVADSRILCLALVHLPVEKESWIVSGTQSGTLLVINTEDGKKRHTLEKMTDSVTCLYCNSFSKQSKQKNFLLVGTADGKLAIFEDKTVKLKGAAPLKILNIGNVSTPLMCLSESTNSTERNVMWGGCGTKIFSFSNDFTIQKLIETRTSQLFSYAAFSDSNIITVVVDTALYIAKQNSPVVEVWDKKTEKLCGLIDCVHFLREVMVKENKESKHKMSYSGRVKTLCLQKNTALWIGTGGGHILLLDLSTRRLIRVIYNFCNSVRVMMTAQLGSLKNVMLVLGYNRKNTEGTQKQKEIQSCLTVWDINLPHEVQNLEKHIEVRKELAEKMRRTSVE
Outline: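 Purified human LRRK2 (25 ng) in 40 mM Tris-HCl pH7.4, 20 mM MgCl2, 0.5 mg/ml BSA, 50 μM DTT with 10 μM ATP and substrate ([…]), 2 h at 25° C. Final compound 50 to 0.000001024 μM, 12-point dilution. ADP-Glo luminescence vs solvent control; IC50 (nM).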

human DYRK1A and Tau = test: Tau phosphorylation inhibition, ClariCELL Kinase Cell-Based Assay (Carnabio)
Description: Tau phosphorylation inhibitory efficacy was measured using the ClariCELL™ Kinase Cell-Based Assay service of Carnabio, located in the United States. The compounds are exposed to human embryonic kidney ([…]) cells transiently expressing human DYRK1A and Tau, and then the cells are lysed to release cellular proteins. At this time, the released Tau is captured on a plate, and the degree of phosphorylation is quantified by ELISA using an antibody specific for Tau phosphorylation.

human GST-CLK1 (129-end) = target: T1, human GST-CLK1 (129-end) (Homo sapiens, UniProt P49759); test: GST-CLK1 enzyme inhibition, ADP-Glo kinase assay; format: biochemical; conditions: ATP 10 uM
T1 construct: purified human GST-CLK1 (129-end, Signalchem) enzyme; GST; purchased Signalchem
T1 sequence (P49759 129-484 limits assumed): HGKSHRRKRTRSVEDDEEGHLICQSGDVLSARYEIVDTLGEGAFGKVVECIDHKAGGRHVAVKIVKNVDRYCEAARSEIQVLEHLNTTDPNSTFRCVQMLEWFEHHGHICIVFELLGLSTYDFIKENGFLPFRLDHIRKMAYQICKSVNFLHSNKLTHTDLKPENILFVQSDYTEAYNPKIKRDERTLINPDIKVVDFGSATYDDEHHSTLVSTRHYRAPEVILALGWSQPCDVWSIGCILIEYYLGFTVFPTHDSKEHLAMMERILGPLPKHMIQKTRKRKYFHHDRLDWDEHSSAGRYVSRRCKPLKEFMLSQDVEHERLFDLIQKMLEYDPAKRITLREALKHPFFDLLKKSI
Outline: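 GST-CLK1 (129-end, 3 ng) reacted with 10 uM ATP and substrate in 40 mM Tris-HCl pH 7.4, 20 mM MgCl2, 0.5 mg/mL BSA, 50 uM DTT, 1 h at 25° C. ADP-Glo luminescence normalised to solvent control; IC50 from triplicate data.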

[1] = target: T2, human GST-DYRK1A (full length) (Homo sapiens, UniProt Q13627); test: GST-DYRK1A enzyme inhibition, ADP-Glo kinase assay; format: biochemical; conditions: read-out: DYRK1 IC50
T2 construct: purified human GST-DYRK1A (full length, Thermo scientifics) enzyme; GST; purchased Thermo scientifics
Outline: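 Full-length human GST-DYRK1A (10 ng) incubated with 10 uM ATP and specific substrate for 1 h at 25° C in 40 mM Tris-HCl pH 7.4, 20 mM MgCl2, 0.5 mg/mL BSA, 50 uM DTT. ADP formation read by ADP-Glo luminescence; IC50 (nM) versus solvent control, triplicate.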

LRRK2 (G2019S) = LRRK2 (G2019S) (Homo sapiens, UniProt Q5S007, G2019S); test: LRRK2 G2019S enzyme inhibition, ADP-Glo kinase assay; format: biochemical; parameters: purchased SignalChem L10-12GG
LRRK2 (G2019S), sequence (Q5S007 970-2527 G2019S limits assumed): as the sequence (Q5S007 970-2527 limits assumed) above, with G1050S counted along it
Outline: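 Purified human LRRK2 G2019S (16 ng) with 25 μM ATP and 0.2 μg substrate, 2 h at 25° C in 40 mM Tris-HCl pH 7.4, 20 mM MgCl2, 0.5 mg/ml BSA, 50 μM DTT; compound at 12 final concentrations from 50 μM downward. ADP-Glo luminescence versus solvent control gave IC50 (nM).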

SMILES | GI50 (SHP-77) | GI50 (MDA-MB-231 cell line) | IC50 (LRRK2) | inhibition at 0.25 µM (human DYRK1A and Tau) | inhibition at 0.5 µM (human DYRK1A and Tau) | inhibition at 1 µM (human DYRK1A and Tau) | IC50 (human GST-CLK1 (129-end)) | IC50 [1] | IC50 (LRRK2 (G2019S))
CCCNc1cc(Nc2ccc(S(=O)(=O)N3CCC(N4CCOCC4)CC3)cc2OC)nc2[nH]cc(C(F)(F)F)c12 [Example 40, N^6-(2-methoxy-4-((4-morpholinopiperidin-1-yl)sulfonyl)phenyl)-N^4-propyl-3-(trifluoromethyl)-1H-pyrrolo[2,3-b]pyridine-4,6-diamine] | 301 to 1000 nM | 301 to 1000 nM | 301 to 1000 nM | 9.2% | 15.2% | 38.7% | 301 to 1000 nM | < 100 nM | 
COc1cc(S(=O)(=O)N2CCOCC2)ccc1Nc1cc(NCCS(C)(=O)=O)c2c(C(F)(F)F)c[nH]c2n1 [Example 192, N^6-(2-methoxy-4-(morpholinosulfonyl)phenyl)-N^4-(2-(methylsulfonyl)ethyl)-3-(trifluoromethyl)-1H-pyrrolo[2,3-b]pyridine-4,6-diamine] | 301 to 1000 nM | 301 to 1000 nM | 101 to 300 nM |  |  |  | 301 to 1000 nM | < 100 nM | 301 to 1000 nM
COc1cc(S(=O)(=O)N2CCC(N3CCOCC3)CC2)ccc1Nc1cc(NC2CC2)c2c(C(F)(F)F)c[nH]c2n1 [Example 188, N^4-cyclopropyl-N^6-(2-methoxy-4-((4-morpholinopiperidin-1-yl)sulfonyl)phenyl)-3-(trifluoromethyl)-1H-pyrrolo[2,3-b]pyridine-4,6-diamine 2,2,2-trifluoroacetate] | 101 to 300 nM | 301 to 1000 nM | < 100 nM |  |  |  | 301 to 1000 nM | 301 to 1000 nM | 101 to 300 nM
COc1cc(S(=O)(=O)N2CCC(N3CCOCC3)CC2)ccc1Nc1cc(NC2CC2)c2c(C#N)c[nH]c2n1 [Example 134, 4-(cyclopropylamino)-6-((2-methoxy-4-((4-morpholinopiperidin-1-yl)sulfonyl)phenyl)amino)-1H-pyrrolo[2,3-b]pyridine-3-carbonitrile] | < 50 nM | < 50 nM | < 100 nM |  |  |  | 101 to 300 nM | 301 to 1000 nM | < 100 nM
COc1cc(S(=O)(=O)N2CCOCC2)ccc1Nc1cc(NCCS(C)(=O)=O)c2c(C#N)c[nH]c2n1 [Example 130, 6-((2-methoxy-4-(morpholinosulfonyl)phenyl)amino)-4-((2-(methylsulfonyl)ethyl)amino)-1H-pyrrolo[2,3-b]pyridine-3-carbonitrile] | 301 to 1000 nM | 301 to 1000 nM | < 100 nM |  |  |  | 301 to 1000 nM | 101 to 300 nM | < 100 nM
CNc1cc(Nc2ccc(S(=O)(=O)N3CCOCC3)c3c2OCCO3)nc2[nH]cc(C(F)(F)F)c12 [Example 98, N^4-methyl-N^6-(8-(morpholonosulfonyl)-2,3-dihydrobenzo[b] [1,4]dioxin-5-yl)-3-(trifluoromethyl)-1H-pyrrolo[2,3-b]pyridine-4,6-diamine] | 301 to 1000 nM | 101 to 300 nM | 101 to 300 nM |  |  |  | 301 to 1000 nM | 101 to 300 nM | < 100 nM
COc1cc(S(=O)(=O)N2CCOCC2)ccc1Nc1cc(NCC(C)C)c2c(C(F)(F)F)c[nH]c2n1 [Example 189, N^4-isobutyl-N^6-(2-methoxy-4-(morpholinosulfonyl)phenyl)-3-(trifluoromethyl)-1H-pyrrolo[2,3-b]pyridine-4,6-diamine] | 301 to 1000 nM | 301 to 1000 nM | 301 to 1000 nM |  |  |  | 301 to 1000 nM | 301 to 1000 nM | 301 to 1000 nM
COc1cc(S(=O)(=O)N2CCOCC2)ccc1Nc1cc(NC2CC2)c2c(C#N)c[nH]c2n1 [Example 127, 4-(cyclopropylamino)-6-((2-methoxy-4-(morpholinosulfonyl)phenyl)amino)-1H-pyrrolo[2,3-b]pyridine-3-carbonitrile] | < 50 nM | 51 to 100 nM | < 100 nM |  |  |  | 301 to 1000 nM | 301 to 1000 nM | 101 to 300 nM
CCNc1cc(Nc2ccc(S(=O)(=O)N3CCOCC3)c3c2OCCO3)nc2[nH]cc(C(F)(F)F)c12 [Example 99, N^4-ethyl-N^6-(8-(morpholonosulfonyl)-2,3-dihydrobenzo[b] [1,4]dioxin-5-yl)-3-(trifluoromethyl)-1H-pyrrolo[2,3-b]pyridine-4,6-diamine] | 301 to 1000 nM | 301 to 1000 nM | 301 to 1000 nM |  |  |  | 301 to 1000 nM | 301 to 1000 nM | 301 to 1000 nM
CCNc1cc(Nc2ccc(S(=O)(=O)N3CCOCC3)cc2OC)nc2[nH]cc(C(F)(F)F)c12 [Example 179, N^4-ethyl-N^6-(2-methoxy-4-(morpholinosulfonyl)phenyl)-3-(trifluoromethyl)-1H-pyrrolo[2,3-b]pyridine-4,6-diamine] | 301 to 1000 nM | 301 to 1000 nM | 301 to 1000 nM |  |  |  | 301 to 1000 nM | 301 to 1000 nM | 301 to 1000 nM
CCCNc1cc(Nc2ccc(S(=O)(=O)N3CCC(N4CCOCC4)CC3)cc2OC)nc2[nH]cc(C#N)c12 [Example 139, 6-((2-methoxy-4-((4-morpholinopiperidin-1-yl)sulfonyl)phenyl)amino)-4-(propylamino)-1H-pyrrolo[2,3-b]pyridine-3-carbonitrile] | < 50 nM | < 50 nM | < 100 nM |  |  |  | 301 to 1000 nM | 301 to 1000 nM | < 100 nM
CCNc1cc(Nc2ccc(S(=O)(=O)N3CCC(N4CCOCC4)CC3)cc2OC)nc2[nH]cc(C(F)(F)F)c12 [Example 185, N^4-ethyl-N^6-(2-methoxy-4-((4-morpholinopiperidin-1-yl)sulfonyl)phenyl)-3-(trifluoromethyl)-1H-pyrrolo[2,3-b]pyridine-4,6-diamine] | < 50 nM | 51 to 100 nM | < 100 nM | 22.9% | 37.7% | 56.2% | 101 to 300 nM | 101 to 300 nM | < 100 nM
COCCNc1cc(Nc2ccc(S(=O)(=O)N3CCOCC3)cc2OC)nc2[nH]cc(C#N)c12 [Example 129, 6-((2-methoxy-4-(morpholinosulfonyl)phenyl)amino)-4-((2-methoxyethyl)amino)-1H-pyrrolo[2,3-b]pyridine-3-carbonitrile] | < 50 nM | 101 to 300 nM | < 100 nM |  |  |  | 301 to 1000 nM | 301 to 1000 nM | < 100 nM
CCNc1cc(Nc2ccc(S(=O)(=O)N3CCOCC3)cc2OC)nc2[nH]cc(C#N)c12 [Example 132, 4-(ethylamino)-6-((2-methoxy-4-(morpholinosulfonyl)phenyl)amino)-1H-pyrrolo[2,3-b]pyridine-3-carbonitrile] | 51 to 100 nM | 101 to 300 nM | < 100 nM |  |  |  | 301 to 1000 nM | 301 to 1000 nM | 101 to 300 nM
CCCNc1cc(Nc2ccc(S(=O)(=O)N3CCOCC3)cc2OC)nc2[nH]cc(C#N)c12 [Example 133, 6-((2-methoxy-4-(morpholinosulfonyl)phenyl)amino)-4-(propylamino)-1H-pyrrolo[2,3-b]pyridine-3-carbonitrile] | 51 to 100 nM | 101 to 300 nM | < 100 nM |  |  |  | 301 to 1000 nM | 301 to 1000 nM | 301 to 1000 nM

— patent US12240844B2 (Voronoi, Inc., priority 2019, dated 2025)
